Experimental data: ChEMBL document CHEMBL1201862, “PubChem BioAssay data set” (2004)
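Test compounds were applied to cells in 96-well plates for 48 hours at 5 doses. GI50: concentration for 50% inhibition of growth.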 Activity calls are given as the source filed them. Cut-off read from the data, not from the text of the source: active = GI50 up to about 1.1 µM and inactive = higher.

Experiments:
Test in all cases: inhibition of tumour cell growth, NCI panel, 48 h
DLD-1 = system: DLD-1
UACC-257 = system: UACC-257
SK-MEL-28 = system: SK-MEL-28
A498 = system: A498
NCI-H23 = system: NCI-H23
TK-10 = system: TK-10
SNB-75 = system: SNB-75
COLO 205 = system: COLO 205
RPMI-8226 = system: RPMI-8226
OVCAR-8 = system: OVCAR-8
OVCAR-4 = system: OVCAR-4
OVCAR-5 = system: OVCAR-5
CCRF-CEM = system: CCRF-CEM
SF-539 = system: SF-539
EKVX = system: EKVX
SW-620 = system: SW-620
NCI/ADR-RES = system: NCI/ADR-RES
MDA-MB-435 = system: MDA-MB-435
MCF7 = system: MCF7
DU-145 = system: DU-145

Measured: GI50

COC(=O)C1CC(C(=O)OC)c2nc3cc(C)c(C)cc3nc21 (centres undefined)
inactive: DLD-1 > 100 µM | UACC-257 > 100 µM | SK-MEL-28 > 100 µM | A498 > 100 µM | NCI-H23 > 100 µM | TK-10 > 100 µM | SNB-75 36.3 µM | COLO 205 > 100 µM | RPMI-8226 > 100 µM | OVCAR-8 > 100 µM | OVCAR-4 > 100 µM | OVCAR-5 > 100 µM | CCRF-CEM > 100 µM | SF-539 > 100 µM | EKVX > 100 µM | SW-620 > 100 µM

CCOc1ccccc1/N=N/c1ccc2oc(=O)c(C(C)=O)cc2c1
inactive: DLD-1 > 100 µM | UACC-257 > 100 µM | SK-MEL-28 > 100 µM | A498 > 100 µM | NCI-H23 > 100 µM | TK-10 30.5 µM | SNB-75 16 µM | COLO 205 > 100 µM | RPMI-8226 > 100 µM | OVCAR-8 > 100 µM | OVCAR-4 > 100 µM | OVCAR-5 > 100 µM | CCRF-CEM > 100 µM | SF-539 > 100 µM | EKVX 45.9 µM | SW-620 > 100 µM

O=C1CCC2(c3ccccc3)OCC([C@@H](O)c3ccccc3)N12 (some centres undefined)
inactive: DLD-1 > 100 µM | UACC-257 > 100 µM | SK-MEL-28 > 100 µM | A498 > 100 µM | NCI-H23 > 100 µM | TK-10 > 100 µM | SNB-75 > 100 µM | COLO 205 > 100 µM | RPMI-8226 > 100 µM | OVCAR-8 > 100 µM | OVCAR-4 > 100 µM | OVCAR-5 > 100 µM | CCRF-CEM > 100 µM | SF-539 > 100 µM | EKVX > 100 µM | SW-620 > 100 µM

CC(C)C1CNC2N1C(=O)C2(C)OCc1ccccc1 (centres undefined)
inactive: DLD-1 > 100 µM | UACC-257 > 100 µM | SK-MEL-28 > 100 µM | A498 > 100 µM | NCI-H23 > 100 µM | TK-10 > 100 µM | SNB-75 48.2 µM | COLO 205 > 100 µM | RPMI-8226 91.2 µM | OVCAR-8 > 100 µM | OVCAR-4 > 100 µM | CCRF-CEM > 100 µM | SF-539 > 100 µM | EKVX > 100 µM | SW-620 > 100 µM

COc1cc(NCC(C#N)C#N)ccc1/N=N/c1ccc(Cl)cc1
inactive: DLD-1 29.4 µM | SK-MEL-28 27.2 µM | A498 44.7 µM | NCI-H23 23.8 µM | TK-10 29.8 µM | SNB-75 31.6 µM | COLO 205 17.7 µM | RPMI-8226 28.6 µM | OVCAR-8 29.7 µM | OVCAR-4 37.1 µM | OVCAR-5 21.8 µM | CCRF-CEM 18.9 µM | SF-539 25.1 µM | EKVX 21.1 µM | SW-620 20.8 µM

O=C1C2=C(c3ccccc31)C(c1ccccc1)NC(S)=N2 (centres undefined)
inactive: DLD-1 52.6 µM | UACC-257 > 100 µM | SK-MEL-28 49.1 µM | A498 > 100 µM | NCI-H23 > 100 µM | TK-10 > 100 µM | SNB-75 14.4 µM | COLO 205 > 100 µM | RPMI-8226 40.6 µM | OVCAR-8 35.2 µM | OVCAR-4 26.1 µM | OVCAR-5 > 100 µM | CCRF-CEM 30.1 µM | SF-539 19.2 µM | EKVX > 100 µM | SW-620 31 µM

COc1cc(O)c2c(c1O)C(=O)c1cc(C)ncc1C2=O
inactive: DLD-1 16 µM | UACC-257 15 µM | SK-MEL-28 26.5 µM | A498 > 50 µM | NCI-H23 12.4 µM | TK-10 > 50 µM | SNB-75 20.3 µM | COLO 205 20.3 µM | RPMI-8226 22.9 µM | OVCAR-8 21.8 µM | OVCAR-4 35.4 µM | OVCAR-5 44.9 µM | CCRF-CEM 19.2 µM | SF-539 17.4 µM | EKVX 40.5 µM | SW-620 20.2 µM

O=C1c2c(nc3ccccc3c2-c2ccccc2)CN1Nc1ccccn1
inactive: DLD-1 > 100 µM | UACC-257 > 92 µM | SK-MEL-28 > 100 µM | A498 5.32 µM | NCI-H23 86.5 µM | NCI/ADR-RES 43 µM | TK-10 > 83 µM | SNB-75 34.7 µM | COLO 205 > 100 µM | RPMI-8226 76.9 µM | MDA-MB-435 > 100 µM | MCF7 > 70 µM | OVCAR-8 43.5 µM | OVCAR-4 > 80.7 µM | OVCAR-5 > 100 µM | CCRF-CEM 79.1 µM | SF-539 > 75.2 µM | DU-145 67.9 µM | EKVX 69 µM | SW-620 > 100 µM

C/C=C/C=C/C=C/C=C/C(=O)O
inactive: DLD-1 > 100 µM | UACC-257 > 100 µM | SK-MEL-28 > 100 µM | A498 > 100 µM | NCI-H23 > 100 µM | SNB-75 > 100 µM | COLO 205 > 100 µM | RPMI-8226 > 100 µM | OVCAR-8 > 100 µM | OVCAR-4 > 100 µM | OVCAR-5 > 100 µM | CCRF-CEM > 100 µM | SF-539 > 100 µM | EKVX > 100 µM | SW-620 > 100 µM

CC1CC(=O)C(CC(=O)O)[C@H]1C(C(=O)C(=O)Nc1cc(Cl)ccc1Cl)[N+](=O)[O-] (some centres undefined)
inactive: DLD-1 > 100 µM | SK-MEL-28 > 100 µM | A498 > 100 µM | TK-10 > 100 µM | SNB-75 85.9 µM | COLO 205 > 100 µM | RPMI-8226 > 100 µM | OVCAR-8 > 100 µM | OVCAR-5 > 100 µM | CCRF-CEM > 100 µM | SF-539 > 100 µM | EKVX > 100 µM | SW-620 > 100 µM

Nc1ccc(O)c2c1C(=O)c1c(N)ccc(O)c1C2=O
inactive: DLD-1 > 100 µM | UACC-257 > 100 µM | SK-MEL-28 > 100 µM | A498 > 100 µM | NCI-H23 > 100 µM | TK-10 > 100 µM | SNB-75 > 100 µM | COLO 205 > 100 µM | RPMI-8226 > 100 µM | OVCAR-8 > 100 µM | OVCAR-4 > 100 µM | OVCAR-5 > 100 µM | CCRF-CEM > 100 µM | SF-539 > 100 µM | EKVX > 100 µM | SW-620 > 100 µM
